Series [1] deals with CCRF-CEM. Description: MTS cytotoxicity assay, CCRF-CEM. The format is cell-based. Particulars: Homo sapiens, 72 h, 3-day incubation. Summed up:
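Cells were seeded at 25,000–35,000 cells/mL, exposed to compounds in DMSO from time zero for 72 h at 37 °C, 5% CO2, then given MTS for 1–4 h with OD read at 490 nm. Survival was expressed as percent of mean untreated-control OD.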
In general terms: Tetrazolium dyes change colour on reduction, which living cells bring about.

The subject of series [2] is CEM-DNR. Description: MTS cytotoxicity assay, CEM-DNR. Format: cell-based. To be noted: Homo sapiens, 72 h, CEM-DNR (daunorubicin resistant), 3-day incubation. The method in brief:
(§1)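 Cells seeded at 25,000–35,000 cells/mL were exposed to four-fold dilutions of compound in DMSO for 72 h at 37 °C, 5% CO2. MTS added for 1–4 h, OD read at 490 nm; tumour cell survival calculated as percent of control-well OD.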

Series [3] has as its system K562. The series can be described thus: MTS cytotoxicity assay, K562. The format is cell-based. To be noted: Homo sapiens, 72 h, 3-day incubation. Summed up: as §1
Series [4] concerns K562-Tax. The series can be described thus: MTS cytotoxicity assay, K562-Tax. Format: cell-based. Particulars: Homo sapiens, 72 h, K562-Tax (paclitaxel-resistant), 3-day incubation. Summed up: as §1
In series [5] the test system is A549. The series can be described thus: MTS cytotoxicity assay, A549. The format is cell-based. Particulars: Homo sapiens, 72 h, 3-day incubation. Summed up:
as §1

The test system of series [6] is HCT116. The series can be described thus: MTS cytotoxicity assay, HCT116. The format is cell-based. Particulars: Homo sapiens, HCT-116, 72 h, 3-day incubation. Summed up:
as §1

For series [7], the system named is HCT116p53−/−. Description: MTS cytotoxicity assay, HCT116p53−/−. The format is cell-based. Particulars: Homo sapiens, HCT116-p53-null, 72 h, HCT116p53−/− (null p53 gene), 3-day incubation. Summed up: as §1
For series [8], the system named is U2OS. The series can be described thus: MTS cytotoxicity assay, U2OS. Format: cell-based. To be noted: Homo sapiens, 72 h, 3-day incubation. Summed up: as §1
The subject of series [9] is MRC-5. The series can be described thus: MTS cytotoxicity assay, MRC-5. Format: cell-based. To be noted: Homo sapiens, MRC5, 72 h, MRC-5 normal fibroblasts, 3-day incubation. The method in brief: as §1
For series [10], the system named is BJ. The series can be described thus: MTS cytotoxicity assay, BJ. The format is cell-based. Particulars: Homo sapiens, 72 h, BJ normal fibroblasts, 3-day incubation. Summed up:
as §1

Series [11] concerns CCRF-CEM lymphoblasts. Description: Mitotic marker pH3Ser10 flow cytometry. Particulars: 5 × IC50. Format: cell-based, human. The procedure: (§2) CCRF-CEM cells were seeded in 6-well plates at a density of 1 × 10^6/well. […] Cells were then harvested, washed with cold 1 × PBS and fixed in ice-cold 70% ethanol. Fixed cells were incubated overnight at −20 °C, washed in hypotonic citrate buffer, treated with RNase (50 μg mL^−1) and incubated with propidium iodide for 15 min. DNA content was analysed using Becton Dickinson flow cytometer and cell cycle data were analysed in the program ModFitLT (Verity, Carrollton, TX, USA). Apoptosis was measured in a logarithmic model expressing the percentage of the particles with propidium content lower than cells in G0/G1 phase (<G1) of the cell cycle. The mitotic marker pH3Ser10 antibody (Sigma) and secondary anti-mouse-FITC antibody (Sigma) were used for labelling and subsequent flow cytometry analysis of ethanol-fixed CCRF-CEM cells.

The test system of series [12] is CCRF-CEM lymphoblasts. Description: BrDU incorporation analysis (DNA synthesis). Format: cell-based, human. Particulars: 24 h incubation. The method, then:
Cells were cultivated as in the method above and pulse-labelled with 10 μM 5-bromo-2-deoxyuridine (BrDU) for 30 min before collection to the test tubes. The cells were washed with cold 1 × PBS and fixed in ice-cold 70% ethanol. Before analysis, they were washed with 1 × PBS and incubated in 2M HCl for 30 min at room temperature. Following neutralization with 0.1M Na2B4O7 (borax), the cells were washed with 0.5% Tween-20 and 1% BSA in 1 × PBS. The cell pellets were stained using a primary anti-BrdU antibody (Exbio, Vestec, Czech Republic) for 30 min at room temperature and a secondary anti-mouse-FITC antibody (Sigma). The samples were then incubated with propidium iodide (0.1 mg mL^−1), treated with RNase A (0.5 mg mL^−1) for 1 h at room temperature in the dark and analysed as above.

In series [13] the test system is CCRF-CEM lymphoblasts. The series can be described thus: BrU incorporation analysis (RNA synthesis). The format is cell-based, human. To be noted: 24 h, 5 × IC50 (high concentration).
Series [14] relates to entire cell line panel.
The test system of series [15] is HEK 293 cells. To be noted: Resazurin assay. In general terms: The colour change of resazurin is a common sign of viable cells or microbes.
Series [16] has as its system CCRF-CEM lymphoblasts. The series can be described thus: Cell cycle and apoptosis analysis (flow cytometry, propidium iodide). The format is cell-based, human. To be noted: 5 × IC50. The method, then:
as §2
For orientation: Flow cytometry measures light scatter and fluorescence of single cells or particles in a stream.

Series [17] relates to U2OS-Nuc cell line. Description: Live cell imaging, pilot experiment. Format: cell-based, human. To be noted: 10 µM, 1 h incubation. The method, then:
(§3) U2OS cell line (ATCC, USA) was transduced with premade lentiviral particles (Vectalis-TaKaRa, Japan) with sequences that express fluorescent protein tag mCherry targeted to specific subcellular locations. All cell lines were prepared according to the vendor’s instructions. The U2OS-Nuc cell line was prepared by using rLV.EF1.mCherry-Nuc-9 (cat. n. 0023VCT), containing a NLS sequence that imports protein into the nucleus. The U2OS-ER cell line was transduced by rLV.EF1.mCherry-ER-9 (cat. n. 0025VCT), which contains a calreticulin signal sequence and a KDEL sequence that associates protein with the endoplasmic reticulum. The U2OS-GA cell line was transduced by rLV.EF1.mCherry-Golgi-9 (cat. n. 0022VCT), containing a human GT precursor, a protein localized in Golgi Apparatus. The U2OS-Mito cell line was prepared by using rLV.EF1.mCherry-Mito-9 (cat. n. 0024VCT), containing a mitochondrial targeting sequence.
(§4) U2OS cells with fluorescent fusion proteins (density 1.0 × 10^3 per well) were seeded into 384 CellCarrier plates (Perkin Elmer, Waltham, MA, USA) and pre-incubated for 24 h at 37 °C and 5% CO2. The attached cells were treated with tested compounds in concentration 10 µM for 1 h and subsequently rinsed with fresh media. The live-cell imaging was performed by Cell Voyager CV7000 (Yokogawa, Tokyo, Japan) spinning disc confocal microscopy system at 37 °C in a 5% CO2 atmosphere. Live cells were monitored by a 60 × water immersion objective. The fluorescent signal was excited by lasers (405 nm and 561 nm) and the emission was filtered by bandpass filters (BP 445/45 and BP 595/20). All images were post-processed, and Pearson’s and Mander’s coefficients were calculated using the JACoP plugin in Image-J software.

Series [18] has as its system U2OS-ER, U2OS-Mito and U2OS-GA cell lines. The series can be described thus: Live cell colocalization experiments. The format is cell-based, human. To be noted: 10 µM, 1 h, Mander's coefficient. The procedure: as §3, §4
The nature of series [19]: in vitro. To be noted: human.
Series [20] concerns entire cell line panel. The series can be described thus: MTS cytotoxicity assay, whole panel (summary in words). To be noted: maximal tested concentration.

We go through four compounds from paper PMC8472287, “Betulinic Acid Decorated with Polar Groups and Blue Emitting BODIPY Dye: Synthesis, Cytotoxicity, Cell-Cycle Analysis and Anti-HIV Profiling” (Biomedicines, 2021).

Counter-ions that a name gives are not always drawn. Like-named read-outs stand apart in the source and are kept apart here.

By IC50 is commonly meant the concentration needed to halve the response being measured. Lower therefore signals greater potency.

In the case of `C=C(C)[C@@H]1CC[C@]2(C(=O)NCCCN)CC[C@]3(C)[C@H](CC[C@@H]4[C@@]5(C)CC[C@H](O)C(C)(C)[C@@H]5CC[C@]43C)[C@@H]12` [Compound 3, (3β)-N-(3-Aminopropyl)-3-hydroxylup-20(29)-ene-28-amide], the IC50 in series [1] was 0.21 µM; in series [2], 1.22 µM; in series [3], 0.9 µM; in series [4], 0.37 µM; in [5] it was 1.8 µM; in series [6] it was 0.82 µM. The IC50 came to 0.44 µM in [7], 0.89 µM in series [8], 2.59 µM in series [9] and 1.91 µM in series [10]. Further, the “rate of cell division by mitotic marker pH3Ser10 (in words)” value (from here on “rate of cell division”) in series [11] is on record as “low rate of cell division”. The “fraction of proliferating BrDU positive CCRF-CEM cells (in words)” value (from here on “fraction”) in series [12] is “reduced the fraction of proliferating BrDU positive CCRF-CEM cells”. The “RNA synthesis by BrU (in words)” value in [13] is “stalled RNA synthesis”. Further, the “cytotoxic effect in the cell line panel (in words)” value (shortened to “cytotoxic effect”) in [14] is on record as “high cytotoxicity”. Moreover, the “concentration at which highly toxic to HEK 293 cells” value in series [15] is recorded as “lower than 5 µM”.

Turning to `C=C(C)[C@@H]1CC[C@]2(C(=O)N3CCN(CCN)CC3)CC[C@]3(C)[C@H](CC[C@@H]4[C@@]5(C)CC[C@H](O)C(C)(C)[C@@H]5CC[C@]43C)[C@@H]12` [Compound 14, (3β)-28-[4-(2-Aminoethyl)piperazine-1-yl]-3-hydroxylup-20(29)-ene-28-one hydrochloride], the half-maximal inhibitory concentration (IC50) in [1] amounted to 0.29 µM; in series [2] it was 0.35 µM; in series [3], 0.4 µM; in series [4], 0.52 µM; in [5] it was 1.26 µM; in series [6], 0.39 µM. Further, the IC50 in series [7] worked out at 0.44 µM; in series [8], 0.42 µM; in series [9], 1.58 µM; in series [10], 1.59 µM. The “increase of the percentage of cells in the S-phase compared to untreated control” value in [16] is listed as “about 50%”. The “rate of cell division” value in series [11] is “low rate of cell division”. Besides, in [12], the “fraction” value is reported as “reduced the fraction of proliferating BrDU positive CCRF-CEM cells”. Further, the “RNA synthesis by BrU (in words)” value in series [13] is “stalled RNA synthesis”. In [14], the “cytotoxic effect” value is “high cytotoxicity”. In series [15], the “concentration at which highly toxic to HEK 293 cells” value is listed as “lower than 5 µM”.

As for `C=C(C)[C@@H]1CC[C@]2(C(=O)NCCCN)CC[C@]3(C)[C@H](CC[C@@H]4[C@@]5(C)CC[C@H](OC(=O)CCNC6=C7C=CC=[N+]7[B-](F)(F)n7cccc76)C(C)(C)[C@@H]5CC[C@]43C)[C@@H]12` [Compound 6, (3β)-N-(3-Aminopropyl)-3-[N´-(4,4-difluoro-4-bora-3a,4a-diaza-s-indacene-8-yl)-β-alanyl]-oxy-lup-20(29)-ene-28-amide], the IC50 was found to be 1.55 µM in series [1]; 11.5 µM in [2]; 5.25 µM in [3]; 31.8 µM in [4]; 6.65 µM in [5]; 3.85 µM in series [6]. Also, the IC50 in series [7] turned out to be 3.39 µM; in series [8] it was 5 µM; in [9], 8.07 µM; in series [10] it was 8.37 µM; in series [19] it was 12 µM. The “rate of cell division” value in series [11] is “low rate of cell division”. The “fraction” value in series [12] is “reduced the fraction of proliferating BrDU positive CCRF-CEM cells”. The “detection in living cells” value in [17] was “detected in living cells”. For the same compound, in series [18], the “colocalization with cellular structures” value was “almost perfectly label mitochondria and endoplasmic reticulum”. In addition, the “cytotoxic effect” value in series [14] is recorded as “high cytotoxicity”.

For the compound `C=C(C)[C@@H]1CC[C@]2(C(=O)O)CC[C@]3(C)[C@H](CC[C@@H]4[C@@]5(C)CC[C@H](O)C(C)(C)[C@@H]5CC[C@]43C)[C@@H]12` [BA, Betulinic acid], the IC50 in series [1] was above 50 µM; in series [2], 23.1 µM; in [3], above 50 µM; in series [4], above 50 µM; in [5], 22.7 µM; in series [6], above 50 µM. For the same compound, the IC50 in series [7] was above 50 µM; in series [8] it was 29.7 µM; in series [9], above 50 µM; in series [10], above 50 µM. Further, the “cytotoxic effect” value in series [20] is reported as “weak or medium cytotoxic effect”.
